{
  "source": "patent US9593146B2",
  "about": "“CD44v6-derived peptides for treating metastasizing cancer” (AMCURE GMBH, priority 2012, dated 2017)",
  "key": {"ErbB receptors [1]": {"test_system": "ErbB receptors", "experiment": "ErbB ligand induced Erk-kinase phosphorylation in HT29 cells", "type": "cell-based, human", "details": "HT29, 100 ng/ml peptide 5 min, 20 ng/ml ligand", "procedure": "FIG. 15: In contrast to EGF and ER, induction of the ErbB-receptors via TGF-α, BC, Her, HB-EGF or AR is completely independent of CD44v6. Serum-starved HT29 cells were pre-incubated for 5 min with 100 ng/ml of a CD44v6-specific peptide (human v6 14mer) or a control peptide. Afterwards the cells were induced with 20 ng/ml of various ErbB ligands as indicated. The cell lysates were resolved by SDS-PAGE. Western-blotting was used to detect ErbB ligands-induced Erk-kinase phopshorylation.\nFor this purpose HT29 cells were serum-starved for 24 hours and pre-treated with the v6-specific or a control peptide. They were then induced with the indicated ErbB ligands. Erk-kinase phosphorylation was used as a read-out for receptor activation. All ligands could activate the Erk-kinase. […] These ligands are independent of CD44v6 for their induction of the ErbB receptors. This is especially striking, since EGF and TGF-α address the same receptor pairs (ErbB1/1 or ErbB1/2)."}, "Met": {"test_system": "Met", "experiment": "HGF induced activation of Met and Erk in L3.6pl, HeLa and HT29 cells", "type": "cell-based, human", "details": "added before induction with HGF", "procedure": "FIG. 14: A: Activation of Met and signal transduction induced by HGF depends on CD44v6 in L3.6pl cells. L3.6pl cells were treated with the human v6 peptide (human v6 14mer) or the rat v6 peptide as control prior to induction with 10 ng/ml HGF. Activation of Met and ERK was determined in western blot. The numbers refer to the fold induction. The experiment was repeated at least 5 times. B: Activation of c-Met and signal transduction induced by HGF depends on CD44v6 HeLa cells. Starved HeLa cells respectively HT29 cells were incubated with the v6 peptide (human v6 14mer) or a control peptide for 10 minutes at 37° C. and then induced with 25 ng/ml of HGF for the indicated time points. Cells were then either lysed and the lysates were subjected to Western Blot analysis for phospho-Met and Met. C: Activation of c-Met and signal transduction induced by HGF depends on CD44v6 in HT29 cells. HGF-induced c-Met and Erk phosphorylation in HT29 was determined as described above using phospho-specific antibodies. […]\nThe contribution of CD44v6 to Met signaling in the human epithelial pancreatic cancer cells L3.6pl (derived from Colo 357), the cervix carcinoma cells HeLa and the colon cancer cells HT29 were analysed using the CD44v6 peptide (v6 14mer; v6 5mer tested as well, data not shown)."}, "L3.6pl cells": {"test_system": "L3.6pl cells", "experiment": "Regression of established metastases, L3.6pl orthotopic mouse model", "type": "in vivo, nude mice", "details": "treatment started three weeks after implantation; human v6 peptide or rat control peptide 20 μg i.p.", "procedure": "In order to examine the regression of metastases (either BSp73ASs6 or L3.6pl) were implanted as described above. Tumor growth was allowed for three weeks. At that time all animals had developed metastases in the control group. Animals were injected i.p. with 20 μg (L3.6pl orthotopic mouse model: human v6 peptide or rat control peptide) or i.v. with 200 μg (rat syngeneic model: rat v6 peptide or mouse control peptide) of peptides three times per week. Animals were killed 23 days after the start of the peptide treatment.\nThe specific binding of the CD44v6 peptides to specific areas of the lungs in the rat system and of the liver in the human model raises the question whether these peptides might have an effect on already established metastases. In the experiments described in FIGS. 2 and 4 the peptides were applied early after injection of the tumor cells and repressed completely the establishment of metastases. In order to measure the effect of the CD44v6 peptide on already established metastases, other experimental settings were used. […] At the end of the experiments metastases could be detected in all animals treated with the control peptide (Table 3, FIG. 6B for the BSp73ASs6 cells, Table 3, FIG. 6C for L3.6pl cells) whereas animals treated with the species-specific CD44v6 peptides were free of metastasis. […]"}, "HT29 cells": {"test_system": "HT29 cells", "experiment": "HGF induced scattering of HT29 cells", "type": "cell-based, human", "details": "HT29, HGF 50 ng/ml 24 h, human peptides prior to induction (FIG. 17)", "procedure": "FIG. 17: The human CD44 v6 specific peptides block HGF induced cell scattering and invasion into matrigel. Scattering of HT29 cells was determined in 24-well plates. First, 4.5×10^4 cells were seeded at 37° C.; after 24 h the cells were serum starved for additional 24 h. the cells were either left untreated (control) or later treated with HGF (50 ng/ml) for 24 h. Where indicated the cells were treated with the v6 specific peptide (human v6 5mer, 10mer, 14mer) or control peptide prior to induction with HGF for 30 min. Pictures were made using phase contrast microscopy. Magnification 40×.\nA scatter assay was performed additionally. HT29 colon cancer cells were grown in medium containing 10% FCS. One day after seeding, the cells were starved. On the third day, the cells were induced with HGF (10 ng/ml) and pre-incubated with either no peptide, ctrl-peptides (SEQ ID No.: 15), non-pegylated v6-peptides (SEQ ID No.: 11) or the pegylated peptides, namely PEG-rat control peptide and PEG-rat CD44v6 peptide.\nScattering of HT29 cells was determined in 24-well plates. First, 4×10^5 cells were seeded at 37° C.; the cells were either left untreated or 48 h later treated with HGF (50 ng/ml) for 24 h or with PEGylated or non-PEGylated peptides (100 ng/ml) prior to HGF induction for 30 min."}, "ErbB receptors [2]": {"test_system": "ErbB receptors", "experiment": "EGF / TGFα induced Erk phosphorylation in MCF7", "type": "cell-based, human", "details": "100 ng/ml peptide"}},
  "data": [
    {"sequence": "KEQWFGNRWHEGYR [human 14mer, human CD44v6 14mer peptide]", "values": [
      {"measurement": "AR, BC, HB-EGF and TGF-α-induced activation of the ErbB receptors", "setting": "ErbB receptors [1]", "value": "could not be inhibited"},
      {"measurement": "EGF- and ER-dependent Erk phosphorylation", "setting": "ErbB receptors [1]", "value": "inhibited"},
      {"measurement": "activation of Met and of its downstream target Erk", "setting": "Met", "value": "able to prevent activation of Met and of its downstream target Erk"},
      {"measurement": "presence of already established (liver) metastases after treatment", "setting": "L3.6pl cells", "value": "eliminate already established metastases"},
      {"measurement": "HGF induced scattering or invasion through the extracellular matrix", "setting": "HT29 cells", "value": "prevented completely scattering or invasion through the extracellular matrix"},
      {"measurement": "Erk phosphorylation upon EGF treatment", "setting": "ErbB receptors [2]; 20 ng/ml EGF (FIG. 16)", "value": "blocking of Erk phosphorylation upon EGF treatment"},
      {"measurement": "Erk phosphorylation upon TGFα induction", "setting": "ErbB receptors [2]; 20 ng/ml TGFα (FIG. 16)", "value": "not upon TGFα induction"}
    ]}
  ]
}
